Assay results as given in patent publication US20200108069A1, “Treatment of Fibrotic Conditions” (ANGLIA RUSKIN UNIVERSITY HIGHER EDUCATION CORPORATION, priority 2018, published 2020).
Like-named read-outs stand apart in the source and are kept apart here.

Key:
[1] = test system: TGF-β1-induced myofibroblast collagen contraction, TA-derived fibroblasts; assay: Collagen gel contraction assay (fibroblast populated collagen lattices); format: cell-based, human; settings: 10 ng/ml TGF-β1; lattices released after 72 h, contraction observed for 8 h
Procedure: Images were analysed using ImageJ software by measuring the surface area of the contracting lattice. Contraction was calculated as percentage of the surface of the unreleased lattice. Data is shown as percentage of maximum contraction of vehicle control. The two classes of drugs were then tested in functional assays. Firstly, we tested their efficacy in inhibiting collagen gel contraction as a measure of myofibroblast contractility; a characteristic function of myofibroblasts, which separates them from fibroblasts. […] Secondly, we tested the drugs' efficacy in inhibiting ECM protein production, which is again one of the critical characteristic functions of myofibroblasts. […] FIG. 4).

[2] = test system: fibroblasts isolated from human tunica albuginea (TA); TGF-β1-induced myofibroblast transformation; assay: In Cell ELISA (ICE) phenotypic screening assay of TGF-β1-induced myofibroblast transformation (α-SMA/DNA staining); format: cell-based; settings: for IC50: co-incubation with 10 ng/ml TGF-β1 for 72 hours, α-SMA/DNA staining ratio, read-out: IC50, inhibition of TGF-β1-induced myofibroblasts transformation
Source text: Tunica albuginea tissue samples were collected from patients undergoing surgery at University College London Hospital (UCLH), London, UK for penile cancer or PD. All patients gave fully informed written consent to the study. The study was approved by independent research ethics committees (NRES Committee East of England 12/EE/0170 and NRES Committee North of Scotland 15/NS/0051). PD plaque tissue was obtained from patients with chronic PD undergoing a Lue procedure (plaque incision and grafting). Plaque tissue would have otherwise been discarded. Non-plaque TA was obtained from PD patients undergoing a Nesbit procedure whereby non-fibrotic TA tissue was excised from the opposite side of the plaque. TA tissue samples from patients with penile cancer were taken from the proximal side away from the tumour, with the tumour showing negative margins on histological examination.
Tissue samples were carefully dissected to ensure that all cavernosal tissue was removed from the tunica albuginea (TA). To establish fibroblast cultures, TA fragments were seeded in 6-well tissue culture plates (Nunc, Fisher Scientific, UK) as described previously16. The tissue pieces were incubated in DMEM-F12 (GIBCO, Invitrogen, UK) containing 10% FCS (Fisher Scientific, UK) and 1% penicillin-streptomycin (GIBCO, Invitrogen, UK) at 37° C., 5% CO2 for 5-7 days. Tissue fragments were carefully removed using forceps upon outgrowth of cells. Passages 2 to 4 were used for the rest of the experiments.
Cells were seeded onto 96 well optical flat bottom black microplates (Nunc, Fisher Scientific, UK) at 5×10^3 cells per well. After overnight attachment they were incubated with or without 10 ng/ml TGF-β1 for 72 hours. The cells were then fixed using 4% paraformaldehyde, and blocked with 10% donkey serum and 0.1% Triton X-100 in PBS. The cells were then incubated with anti-α-SMA antibody (1:3,000; Sigma Aldrich, UK) for 2 h. Afterwards cells were incubated with donkey anti-mouse secondary antibody conjugated to an infrared dye which emits at 800 nm (1:500; IRdye 800CW; Li-Cor, UK) and a nuclear counterstain at that emits at 700 nm (1:1,000; DRAQS, Biostatus, UK) for 1 h. The plate was scanned using an infrared imaging system (Odyssey CLx imager, LI-COR, UK) at both the 700 nm and 800 nm wavelengths.
We have isolated primary fibroblasts from the plaque and non-plaque TA of patients with PD. We also isolated primary fibroblasts from TA of patients with penile cancer as non-fibrotic controls.

[3] = test system: TGF-β1-induced myofibroblast ECM protein production, cells derived from TA tissue; assay: ECM production assay; format: cell-based; settings: Homo sapiens, 168 h, 10 ng/ml TGF-β1 for 7 days
Procedure: Cells were seeded onto 96 well optical flat bottom black microplates (Nunc, Fisher Scientific, UK) at 5×10^3 cells per well. After overnight attachment, they were stimulated with or without 10 ng/ml TGF-β1 and/or compounds for 7 days. DRAQS in PBS (1:1,000) was added and cells were incubated for 5 min at 37° C., 5% CO2 before scanning the plate to obtain nuclear staining. […] Afterwards ECM was stained either with Coomassie Blue (total ECM) overnight at 4° C. or with primary antibodies (collagen I, abcam; collagen III, Millipore; collagen V, abcam: fibronectin, Millipore) at 1:1000 for 1 h on a shaker, followed by incubation with secondary antibody and scanning the plate using an infrared imaging system (Odyssey CLx imager, LI-COR, UK) at both the 700 nm and 800 nm wavelengths. Results were normalized to the cell number before lysis.

[4] = test system: TGF-β1 injection into the rat TA (animal model for PD); assay: Animal model for PD: assessment of erectile function (intracavernous pressure, ICP); format: in vivo, Male Sprague-Dawley rats; settings: tamoxifen 5 mg/kg/day i.p., vardenafil 1.5 mg/kg/day drinking water, 5 weeks
[5] = test system: TGF-β1 injection into the rat TA (animal model for PD), penile fibrosis; assay: Animal model for PD: molecular and histological analysis of penile tissue (qPCR, Western blot, immunohistochemistry); format: in vivo, Male Sprague-Dawley rats
Source text: The animal model for PD was first described by […] Lue^18 and modified by Bivalacqua and Hellstrom^19. Male Sprague-Dawley rats (10-12 weeks old) were housed in a regulated environment with a 12-hour light/dark cycle in a standard experimental laboratory. The animals had free access to food and water ad libitum. Fifty male Sprague-Dawley rats were divided into 5 groups: A: sham (injection of vehicle citrate buffer), B: […] Treatment was initiated at the day after injury and continued for 5 weeks followed by a 48 hours wash-out period. The High-Capacity cDNA Reverse Transcription Kit (Applied Biosystems) was used according to the manufacturer's instructions to transcribe RNA to cDNA. One μg in 10 μl were added to 10 μl of the master mix for reverse transcription for a total reaction volume of 20 μl. After reverse transcription the cDNA was diluted 1:10 for qPCR. The Applied BiosystemsTM TaqManTM Fast Advanced Master Mix was used for qPCR. Gene specific primer pairs for GAPDH, beta-actin, alpha smooth muscle actin, elastin, and collagens I, III, and V were purchased from Applied Biosystems. […] Data was analysed using the 2-ΔΔCt method for relative quantifications. […] Statistical significance, unless otherwise stated, was calculated using one or two-way ANOVA and Student's t-test for unpaired means (two-sided). […]

[6] = Homo sapiens, Fibroblast, 10 ng/ml TGF-β1, 72 hours, read-out: Percentage of inhibition of TGF-β1 induced myofibroblast transformation, Vardenafil only
[7] = Homo sapiens, Fibroblast, read-out: Percentage of inhibition of TGF-β1 induced myofibroblast transformation, Tamoxifen only, 10 ng/ml TGF-β1, 72 hours

For `CCCc1nc(C)c2c(=O)[nH]c(-c3cc(S(=O)(=O)N4CCN(CC)CC4)ccc3OCC)nn12` [vardenafil], the “concentration at which TGF-β1-induced contraction of collagen was inhibited” value [1] was 10 µM, the inhibition at 0.3 µM [2, 6] was 3 ± 3% and the inhibition at 1 µM [2, 6] was 10 ± 1%. It also gave an inhibition at 3 µM [2, 6] of 8 ± 2%, an inhibition at 10 µM [2, 6] of 17 ± 2% and an inhibition at 30 µM ([2]; Homo sapiens, Fibroblast, 30 μM, 10 ng/ml TGF-β1, 72 hours, read-out: Percentage of inhibition of TGF-β1 induced myofibroblast transformation, Vardenafil only) of 25 ± 1%. For the same compound, the inhibition at 100 µM ([2]; Homo sapiens, Fibroblast, 100 μM, 10 ng/ml TGF-β1, 72 hours, read-out: Percentage of inhibition of TGF-β1 induced myofibroblast transformation, Vardenafil only) was 48 ± 1%, the IC50 ([2]; Homo sapiens, Fibroblast) was 30 µM and the IC50 ([3]; read-out: IC50, TGF-β1-induced ECM protein production: collagen I) was 23 µM. The IC50 ([3]; read-out: IC50, TGF-β1-induced ECM protein production: collagen III) was 17 µM, the IC50 ([3]; read-out: IC50, TGF-β1-induced ECM protein production: collagen V) was 23 µM and the IC50 ([3]; read-out: IC50, TGF-β1-induced ECM protein production: fibronectin) was 44 µM.
`CC/C(=C(\c1ccccc1)c1ccc(OCCN(C)C)cc1)c1ccccc1` [tamoxifen] was tested, and the “concentration at which TGF-β1-induced contraction of collagen was inhibited” value [1] was 1 µM, the “Percentage of inhibition of TGF-β1 induced myofibroblast transformation, Tamoxifen only” value ([2]; 100 μM, 10 ng/ml TGF-β1, 72 hours) was “cell death” and the inhibition at 0.3 µM [2, 7] was 10 ± 3%. For the same compound, the inhibition at 1 µM [2, 7] was 10 ± 2%, the inhibition at 3 µM [2, 7] was 10 ± 3% and the inhibition at 10 µM [2, 7] was 25 ± 3%. For the same compound, the “TGF-β1-induced decrease in erectile function (ICP) by 55%” value [4] was “prevented”, the “TGF-β1-induced upregulation of collagen expression (collagens I, III, V mRNA) in penile tissue” value ([5]; 5 weeks treatment, qPCR) was “prevented” and the “penile fibrosis in an animal model for PD” value ([5]; FIG. 5) was “ameliorate penile fibrosis”.
`Cc1cccc(-c2[nH]c(C(C)(C)C)nc2-c2ccc3c(c2)OCO3)n1` [SB505124] gave an IC50 [2] of 0.6 µM.
Compound `O=C(c1ccc(OCCN2CCCCC2)cc1)c1c(-c2ccc(O)cc2)sc2cc(O)ccc12` [raloxifene] has an IC50 [2] of 7 µM.
`CCCc1nn(C)c2c(=O)[nH]c(-c3cc(S(=O)(=O)N4CCN(C)CC4)ccc3OCC)nc12` [sildenafil] was tested, and the IC50 ([2]; Homo sapiens, Fibroblast) was 15 µM.
`CN1CC(=O)N2[C@H](c3ccc4c(c3)OCO4)c3[nH]c4ccccc4c3C[C@@H]2C1=O` [tadalafil] was tested, and the IC50 ([2]; Homo sapiens, Fibroblast) was 3.5 µM.
